Patent US7915293B2, “Ubiquitin ligase inhibitors” (Rigel Pharmaceuticals, Inc., priority 2003, dated 2011)

Assays:
Parameters in all cases: key: “+” indicates that the compound exibits inhibitory activity; “−” indicates that low or no inhibitory activity was observed
MDM2 / p53 substrate = MDM2 / p53 substrate (Homo sapiens, UniProt Q00987); test: Plate-based MDM2 substrate ligation assay (MDM2-P53-FLAG); assay type: biochemical; conditions: 8 concentrations tested
Source text: This assay was preformed essentially as described in WO 03/076899 (page 77, line 5 to page 80, line 13), hereby incorporated by reference in its entirety.

HeLa cells [1] = test: Non-photographic proliferation analysis (Promega Cell titer Aqueous), HeLa; assay type: cell-based; conditions: 6 concentrations tested
Summary of the method: (§1)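 HeLa, A549 and HCT116 cells, 2,000 per well in RPMI with 5% FBS, were given compounds 24 h after plating as 6.3-fold duplicate dilutions from 10 mM stock, diluted 500-fold into the wells. After 48 h at 37° C, 5% CO2, Cell titer Aqueous reagent was added for 45 min and absorbance read at 490 nm.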

HeLa cells [2] = test: Cell proliferation assay, photographic image analysis of proliferation, apoptosis and death (PAD assay), HeLa; assay type: cell-based; conditions: 6 concentrations tested
Summary of the method: (§2)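 Cells grown in RPMI with 5% FBS (2,000/well) and dosed 24 h after plating with 6.3-fold dilutions in duplicate (master plate 500× final, top 10 mM stock). After 48 h at 37 °C, cells formamide-fixed and DAPI-stained. Image analysis counted live, apoptotic and dead cells.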

[3] = target: E3 (His-APC11/APC2-"APC") (Homo sapiens, UniProt Q9NYG5+Q9UJX6); test: Plate-based E3 ligase assay (APC FLAG), auto-ubiquitination; assay type: biochemical; conditions: 8 concentrations tested
Sequence of E3 (His-APC11/APC2-"APC") (Q9NYG5 whole entry): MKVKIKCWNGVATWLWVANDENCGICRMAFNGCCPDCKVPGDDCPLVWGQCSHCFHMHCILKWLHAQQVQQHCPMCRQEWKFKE
Sequence of E3 (His-APC11/APC2-"APC") (Q9UJX6 whole entry): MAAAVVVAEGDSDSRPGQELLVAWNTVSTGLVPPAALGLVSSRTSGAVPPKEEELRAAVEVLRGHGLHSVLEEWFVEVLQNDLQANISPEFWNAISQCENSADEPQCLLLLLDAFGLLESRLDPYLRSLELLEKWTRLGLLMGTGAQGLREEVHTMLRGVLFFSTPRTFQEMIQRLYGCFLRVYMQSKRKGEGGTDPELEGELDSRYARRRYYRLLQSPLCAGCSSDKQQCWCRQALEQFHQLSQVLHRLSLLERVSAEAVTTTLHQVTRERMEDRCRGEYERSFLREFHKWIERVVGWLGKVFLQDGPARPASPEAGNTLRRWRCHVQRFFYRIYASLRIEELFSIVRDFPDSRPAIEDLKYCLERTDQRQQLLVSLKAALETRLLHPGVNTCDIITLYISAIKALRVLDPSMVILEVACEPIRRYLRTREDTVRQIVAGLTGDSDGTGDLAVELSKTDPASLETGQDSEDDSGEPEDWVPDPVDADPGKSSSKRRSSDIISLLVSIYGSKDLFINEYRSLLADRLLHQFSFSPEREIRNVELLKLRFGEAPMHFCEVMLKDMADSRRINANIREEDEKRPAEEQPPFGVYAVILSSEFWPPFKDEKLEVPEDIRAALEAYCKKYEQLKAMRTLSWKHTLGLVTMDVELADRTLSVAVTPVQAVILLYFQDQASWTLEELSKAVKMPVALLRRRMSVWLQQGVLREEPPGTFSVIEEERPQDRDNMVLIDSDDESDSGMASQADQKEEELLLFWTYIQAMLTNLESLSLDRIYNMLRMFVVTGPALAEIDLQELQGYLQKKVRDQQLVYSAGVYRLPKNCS
Summary of the method: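 His-APC11/APC2 auto-ubiquitination was run in casein-blocked nickel plates for 1 h at room temperature, with E1 at 5 ng/well, UbcH5c at 20 ng/well and APC at 100 ng/well. Buffer was 62.5 mM Tris pH 7.6, 3 mM MgCl2, 1 mM DTT, 2.5 mM ATP and Flag-ubiquitin at 100 ng/well. Detection used anti-Flag/HRP chemiluminescence, and IC50 was typically from 6 or 8 concentrations versus a DMSO control.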

HCT116 cells [4] = test: Cell proliferation assay, photographic image analysis of proliferation, apoptosis and death (PAD assay), HCT116; assay type: cell-based; conditions: 6 concentrations tested
Summary of the method: as §2

A549 cells [5] = test: Cell proliferation assay, photographic image analysis of proliferation, apoptosis and death (PAD assay), A549; assay type: cell-based; conditions: 6 concentrations tested
Summary of the method: as §2

A549 cells [6] = test: Non-photographic proliferation analysis (Promega Cell titer Aqueous), A549; assay type: cell-based; conditions: 6 concentrations tested
Summary of the method: as §1

E3 MDM2 = E3 MDM2 (Homo sapiens, UniProt Q00987); test: Plate-based autoubiquitination of the E3 MDM2 (MDM2-FLAG); assay type: biochemical; conditions: 8 concentrations tested
Sequence of E3 MDM2 (Q00987 whole entry): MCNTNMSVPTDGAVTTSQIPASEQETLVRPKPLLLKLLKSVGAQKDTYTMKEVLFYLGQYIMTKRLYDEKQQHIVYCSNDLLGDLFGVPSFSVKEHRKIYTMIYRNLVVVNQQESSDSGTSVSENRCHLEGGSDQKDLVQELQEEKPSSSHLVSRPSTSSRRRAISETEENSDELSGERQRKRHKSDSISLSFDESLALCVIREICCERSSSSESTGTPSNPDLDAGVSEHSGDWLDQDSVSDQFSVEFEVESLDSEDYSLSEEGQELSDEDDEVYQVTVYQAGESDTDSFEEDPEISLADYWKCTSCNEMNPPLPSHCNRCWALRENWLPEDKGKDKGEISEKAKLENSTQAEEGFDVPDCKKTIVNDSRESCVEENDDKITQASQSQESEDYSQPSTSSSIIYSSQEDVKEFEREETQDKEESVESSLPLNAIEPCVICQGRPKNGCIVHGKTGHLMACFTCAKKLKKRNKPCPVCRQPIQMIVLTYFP
Protocol: E3 (His-APC11/APC2-“APC”) auto-ubiquitination was measured as described in U.S. patent application Ser. No. 09/826,312 (Publication No. US-2002-0042083-A1), which is incorporated herein in its entirety. Details of the protocol are described below. Activity in the presence of the compound was determined relative to a parallel control in which only DMSO was added. Values of the IC50 were typically determined using 6 or 8 different concentrations of the compound, although as few as 2 concentrations may be used to approximate the IC50 value.
Nickel-coated 96-well plates (Pierce 15242) were blocked for 1 hour with 100 μl of blocking buffer at room temperature. The plates were washed 4 times with 225 μl of 1×PBS and 80 μl of the reaction buffer were added that contained 100 ng/well of Flag-ubiquitin. To this, 10 μl of the test compound diluted in DMSO were added. After the test compound was added, 10 μl of E1 (human), E2 (Ubch5c), and APC in Protein Buffer was added to obtain a final concentration of 5 ng/well of E1, 20 ng/well of E2 and 100 ng/well of APC. The plate were shaken for 10 minutes and incubated at room temperature for 1 hour. After incubation, the plates were washed 4 times with 225 μl of 1×PBS and 100 μl/well of Antibody Mix were added to each well. The plates were incubate at room temperature for another hour after which they were washed 4 times with 225 μl of 1×PBS and 100 μl/well of Lumino substrate were added to each well. The luminescence was measured by using a BMG luminescence microplate reader.
To prepare the Blocking Buffer (1 liter; 1% Casein in 1×PBS), 10 grams of Casein (Hammersten Grade Casein from Gallard-Schlesinger Inc. #440203) were placed into 1 liter of 1×PBS, stirred on a hot plate and kept between 50-60° C. for an hour. The buffer was allowed to cool to room temperature and then filtered using a Buchner Funnel (Buchner filter funnel 83 mm 30310-109) and Whatman filter paper (Whatman Grade No. 1 Filter paper 28450-070). It was stored at 4° C. until used.
The reaction buffer consisted of 62.5 mM Tris pH 7.6 (Trizma Base—Sigma T-8524), 3 mM MgCl2 (Magnesium Chloride—Sigma M-2393), 1 mM DTT (Sigma D-9779), 2.5 mM ATP (Roche Boehringer Mann Corp. 635-316), 100 ng/well of Flag-ubiquitin, 0.1% BSA (Sigma A-7906), and 0.05% Tween-20 (Sigma P-7949).
The Protein Buffer consisted of 20 mM Tris pH 7.6, 10% glycerol (Sigma G-5516) and 1 mM DTT.
The antibody mix consisted of 0.25% BSA (Sigma A-7906) in 1×PBS, 1/50,000 anti-Flag (Sigma F-3165), 1/100,000 of anti-Mouse IgG-HRP (Jackson Immunoresearch #115-035-146).
The substrate mix consisted of SuperSignal Substrate from Pierce (catalog number 37070ZZ) and was prepared by mixing 100 ml of the peroxide solution, 100 ml of the enhancer solution and 100 ml of Milli-Q® water.
In similar manner, autoubiquitination of the E3 MDM2 was determined (MDM2-FLAG). Further instruction in such assays can be found in U.S. patent application Ser. No. 10/108,767 (Publication No. US-2003-0104474 A1), which is incorporated herein in its entirety.

HCT116 cells [7] = test: Non-photographic proliferation analysis (Promega Cell titer Aqueous), HCT116; assay type: cell-based; conditions: 6 concentrations tested
Protocol: A549 (ATCC# CCL-185), HeLa (ATCC# CCL-2), HCT116 (ATCC# CCL-247), and H1299 (ATCC# CRL-5803) cells were maintained in T175 flasks following the ATCC recommended media and handling procedures. Flasks reaching approximately 70% confluency were trypsinized and resuspended in RPMI media (Cell-Gro catalog number 10-040-CM) modified to contain 5% FBS, 100 ug/mlPen/Strep (Cell-Gro catalog number 30-002-CL), and 0.3 mg/ml L-Glutamine (Cell-Gro catalog number 25-003-CL). A 20,000 cells/ml solution was made for plating. Cells were plated in black Packard 96 well plates by placing 100 μl per well (2,000 cells per well).
Compounds and additional media were added 24 hours after cell plating. A compound master plate was created with concentrations 500 times greater than the final concentration added to the cells. All compound testing was done in duplicate using 6.3 fold dilutions starting with 10 mM. All outside wells (and 4 internal wells) were DMSO controls. Taxol and at least one additional control were run on all plates. Three microliters of the compound master plate were added to deep well blocks containing 750 μl of RPMI media. One hundred microliters were transferred from the compound/media deep well blocks to the plated cells resulting in a 500 fold dilution of the compounds. Cells were grown at 37° C., 5% CO2 for 48 hours.
Some cell plates were treated with Promega Cell titer Aqueous 1 kit (promega—VWR catalog number G3580). In this case, 48 hours after the test compound were added, 100 μl of media were removed and 20 μl of cell titer reagent were added to all wells. Plates were incubated at 37° C. for 45 minutes prior to absorbance reads on the Wallac plate reader at 490 nm for 0.1 sec/well.

Sequence of MDM2 / p53 substrate (Q00987 whole entry): as above

| MDM2-P53 Flag 8 pt (MDM2 / p53 substrate) | APC Flag 8 pt [3] | MDM2-Auto Flag 8 pt (E3 MDM2) | Compound | Cell Titer-Aqueous, HELA 6 pt (HeLa cells [1]) | PAD Assay, HELA 6 pt (HeLa cells [2]) | PAD Assay, HCT116 6 pt (HCT116 cells [4]) | PAD Assay, A549 6 pt (A549 cells [5]) | Cell Titer-Aqueous, A549 6 pt (A549 cells [6]) | Cell Titer-Aqueous, HCT116 6 pt (HCT116 cells [7]) |
| --- | --- | --- | --- | --- | --- | --- | --- | --- | --- |
| + | + | + | O=[N+]([O-])c1ccc(Oc2c(Cl)cc(S(=O)(=O)Nc3cc(Br)cc(Br)n3)cc2Cl)c(Cl)c1 [Compound 218] | + | + | − | − | + |  |
| + | + | + | O=[N+]([O-])c1ccc(Oc2c(Cl)cc(S(=O)(=O)/N=C(\NO)Nc3ccc(Cl)cc3)cc2Cl)c(Cl)c1 [Example 58, 3,5-dichloro-4-(2-chloro-4-nitrophenoxy)-N-[(1Z)-[(4-chlorophenyl)amino](hydroxy-amino)methylene]benzenesulfonamide] | + | + |  | + | + | + |

| Compound | MDM2-P53 Flag 8 pt (MDM2 / p53 substrate) | APC Flag 8 pt [3] | MDM2-Auto Flag 8 pt (E3 MDM2) | Cell Titer-Aqueous, HELA 6 pt (HeLa cells [1]) | PAD Assay, HELA 6 pt (HeLa cells [2]) | PAD Assay, HCT116 6 pt (HCT116 cells [4]) | PAD Assay, A549 6 pt (A549 cells [5]) | Cell Titer-Aqueous, A549 6 pt (A549 cells [6]) | Cell Titer-Aqueous, HCT116 6 pt (HCT116 cells [7]) |
| --- | --- | --- | --- | --- | --- | --- | --- | --- | --- |
| O=[N+]([O-])c1ccc(Oc2c(Cl)cc(S(=O)(=O)Nc3cc([N+](=O)[O-])ccc3F)cc2Cl)c(Cl)c1 [Compound 220, 3,5-dichloro-4-(2-chloro-4-nitrophenoxy)-N-(2-fluoro-5-nitrophenyl)benzene sulfonamide] | − | + | + | + | + | + | + | + |  |
